Measured values reported in US20040019026A1, “Compounds useful for treating hypertriglyceridemia” (priority 2000, published 2004).
Values joined by “and” are separate entries in the source; they are usually repeats but may differ in a detail not shown here. Equal entries are not always repeated.

Assays:
[1] = tested on: hypertriglyceridemic patients; assay: Hypertriglyceridemic patients with high or low HDL, 1200 mg daily: plasma triglycerides (Example 2); assay type: in vivo, human; conditions: for Triglyceride levels: 4 patients with low HDL levels
Protocol: Five hypertriglyceridemic patients had high baseline HDL levels (>50 mg/dL, 64.2±8.5, n=10, mean±S.D.) and four hypertriglyceridemic patients had low HDL levels 40.4±4.1, n=8). They were treated as before, as described in Example 1, except they received 1200 mg of 16α-fluoro-5-androsten-17-one daily. Controls were set up so that they received 1200 mg of placebo. The triglyceride concentration in the plasma were measured pretreatment and at the end of the study.
In those patients with high HDL levels, the triglycerides fell from 330±163 (n=10) to 214±56.1 (n=5). However, in 4 patients with low HDL levels (40.0±4.1), treatment with 1200 mg of 16α-fluoro-5-androsten-17-one daily for 3 to 12 weeks lowered triglyceride levels from 245±55.1 (n=8) to 139±10.6 (n=4), p<0.01.

[2] = tested on: male BKS.Cg-m+/+Leprdb mice; assay: Buccal administration to diabetic mice: fasting plasma triglycerides (Example 3); assay type: in vivo
Excerpt: The following example, tested the effects of buccal administration of 16α-fluoro-5-andorsten-17-one (hereinafter “drug”).
Eight-week-old male BKS.Cg-m^+/+Lepr^db mice were obtained from Jackson Laboratories. The mice were initially housed five per cage on Alphacel bedding with ad libitum access to Purina 5015 chow and acidified water. The mice wee housed in the Central Animal Facility (6th Floor, Pharmacy building) with twelve hours of alternating light and darkness.
Five days later, the chow was removed from the mice at approximately 3:30 p.m. This was done so that a fasting plasma glucose level could be obtained on the next day. The next day, a pretreatment plasma glucose determination was made. The mice were lightly anesthetized with Isoflurane and were bled form the orbital sinus (˜400 μL of blood was taken). The blood was obtained between 10:00 a.m. and noon. Blood was kept on ice until analysis. After the blood for the glucose measurement was taken out, the remaining blood was centrifuged at 3000×g for 15 minutes. The plasma was removed and frozen for use in determining plasma triglyceride levels.
Plasma triglyceride levels were determined with a Sigma kit (334-UV). The determination is based on the enzymatic hydrolysis of triglycerides to glycerol and free fatty acids by lipase. Glycerol was subsequently phosphorylated by ATP to produce glycerol-I-phosphate and ADP. ATP was regenerated by a pyruvate kinase-catalyzed reaction between ADP […] with simultaneous oxidation of equimolar amounts of NADH in the presence of lactate dehydrogenase. NADH absorbs at 340 nm, thus the decrease in absorbance, measured at this wavelength, is directly proportional to the triglyceride concentration in this sample.
Triglyceride Reagent A (containing ATP, lactate dehydrogenase, lipase, NADH, phosphoenol pyruvate, pyruvate kinase) and Triglyceride Reagent B were reconstituted with 10 mL and 2 mL of distilled water respectively. The Sample Reagent was prepared by adding 0.25 mL of Triglyceride reagent B to 10 mL to Triglyceride Reagent A. Blank, standard (50, 100 and 200 mg/dL) and sample tubes were prepared. One mL of Sample Reagent was added to all tubes. To the Blank tube, 20 μL of distilled water was added. For each Sample tube, 20 μL of plasma was added to the tube. All tubes were incubated at room temperature for 10 minutes. The tubes were read against a Reference containing distilled water. Triglyceride concentration in the samples were calculated by subtracting the absorbance of the Sample form the absorbance of the Blank and using the following formula: […]
One week after obtaining the mice, the mice were distributed into either groups of 6 mice (Control, buccal and 5 mg/kg drug buccal), or 7 mice (10 mg/kg drug buccal). The mice were weighed.
The buccally administered groups were treated with a suspension of drug, 16α-5-androsten-17-one obtained from Eminent Services Corp. The suspension consisted of 100 mg/mL of micronized fluasterone (16α-fluoro-5-androsten-17-one) in 0.9% saline plus 2% Tween 80 and 0.4% carboxymethyl cellulose. The mice were lightly anesthetized with isoflurane and then injected i.m. with 0.05 mL of a solution of ketamine (50 mg/kg), xylazine (10 mg.kg) and atropine (0.1 mg/kg) injected near tail). Approximately 10 minutes post injection, while the animals were anesthetized, the mice were placed on their backs and were treated with one-half of the dose of drug necessary in each buccal area. The mice remained anesthetized and on their backs for approximately 30 minutes post-treatment. The 5 mg/kg drug group was treated with 2.04 μL of suspension (1.02 μL per buccal area) and the 10 mg/kg drug group was treated with 4.2 μL(2.1 μL per buccal area) while the Control Buccal group received 4.2 μL (2.1 μL per buccal area) for the duration of the experiment. The cages of the mice were placed on heating pads on a low temperature to prevent loss of animals due to hypothermia during anesthesia. […]

C[C@]12CCCCC1=CC[C@@H]1[C@@H]2CC[C@]2(C)C(=O)[C@H](F)C[C@@H]12 [fluasterone, 16α-fluoro-5-androsten-17-one] was tested, and the Triglyceride levels ([1]; after 1200 mg daily for 3 to 12 weeks, p<0.01) was 139±10.6, the Triglyceride levels ([1]; pretreatment) was 245±55.1 and the Triglycerides ([1]; patients with high HDL levels (>50 mg/dL), pretreatment) was 330±163. The Triglycerides ([1]; patients with high HDL levels, after 1200 mg daily) was 214±56.1, the Plasma triglycerides ([2]; 5 mg/kg buccal group, pre-treatment, group mean) was 138.4 ± 44.6 mg/dL and the Plasma triglycerides ([2]; 5 mg/kg buccal group, pre-treatment, individual mice, listed as drug) was 116.8 mg/dL and 222.8 mg/dL and 120.6 mg/dL and 110.7 mg/dL and 153.8 mg/dL and 105.9 mg/dL. The Plasma triglycerides ([2]; 5 mg/kg buccal, after 6 days of treatment, group mean, p < 0.01 vs. control buccal) was 110.6 ± 28.0 mg/dL, the Plasma triglycerides ([2]; 5 mg/kg buccal, after 6 days of treatment, individual mice, listed as drug) was 77.2 mg/dL and 106.0 mg/dL and 87.3 mg/dL and 414.0 mg/dL and 146.6 mg/dL and 105.4 mg/dL and the Plasma triglycerides ([2]; 5 mg/kg buccal, after 13 days of treatment, group mean, p < 0.0005 vs. Control buccal) was 82.0 ± 12.3 mg/dL. The Plasma triglycerides ([2]; 5 mg/kg buccal, after 13 days of treatment, individual mice, listed as drug) was 97.8 mg/dL and 89.3 mg/dL and 65.3 mg/dL and 79.1 mg/dL and 78.3 mg/dL, the Plasma triglycerides ([2]; 10 mg/kg buccal group, pre-treatment, group mean) was 118.7 ± 38.1 mg/dL and the Plasma triglycerides ([2]; 10 mg/kg buccal group, pre-treatment, individual mice, listed as drug) was 97.1 mg/dl and 102.1 mg/dl (2×) and 89.4 mg/dl and 184.4 mg/dl and 93.7 mg/dl and 162.1 mg/dl. The Plasma triglycerides ([2]; 10 mg/kg buccal, after 6 days of treatment, group mean, p < 0.01 vs. Control buccal) was 96.5 ± 32.4 mg/dL, the Plasma triglycerides ([2]; 10 mg/kg buccal, after 6 days of treatment, individual mice, listed as drug) was 108.7 mg/dL and 83.5 mg/dL and 96.8 mg/dL and 61.2 mg/dL and 104.6 mg/dL and 64.3 mg/dL and 156.7 mg/dL and the Plasma triglycerides ([2]; 10 mg/kg buccal, after 13 days of treatment, group mean, P < 0.001 vs. Control buccal) was 104.0 ± 16.6 mg/dL. For the same compound, the Plasma triglycerides ([2]; 10 mg/kg buccal, after 13 days of treatment, individual mice, listed as drug) was 102.0 mg/dL and 83.5 mg/dL and 93.6 mg/dL and 133.5 mg/dL and 118.1 mg/dL and 97.8 mg/dL and 99.2 mg/dL.
